In patent US20250025581A1, “Medical Imaging of Glycogen Synthase Kinase-3 with a PET Probe” (Mayo Foundation for Medical Education and Research, priority 2021, published 2025):
Counter-ions that a name gives are not always drawn.

Assays:
[1] = PAMPA, pH 7.4
Excerpt: The blood brain permeability was expressed as permeability coefficient, P (10-6 cm/s) and −log Pe.

[2] = serum stability by rad-TLC, human serum; format: in vitro ADME; settings: 37° C., up to 120 min
Description: (§1) The stability of both the probes in mouse and human serums was also measured along with a control at 0 min, 30 min, 60 min, and 120 min using rad-TLC as discussed later below. It was observed that [^18F]F-CNBI was stable >92% up to 120 min.
(§2) Serum Stability Analysis: Stability analysis of [^18F]F-CNBI and [^18F]F-CNPIFE were assessed in human and mouse serums. To perform this stability assay, 100 μL of [^18F]F-CNBI (˜0.74 MBq) or 100 μL of [^18F]F-CNPIFE (˜3.70 MBq) was added to 100 μL of human or mouse serum in a microcentrifuge tube. The resultant mixture of radiotracer and serum was incubated at 37° C. for 120 min. To assess the stability of the probes, a small aliquot (˜0.5 μL) was taken out from the mixture in duplicate at 0 min, 30 min, 60 min and 120 min during incubation, and analyzed on a rad-TLC using 1:9 methanol: chloroform as a mobile phase using i-TLC to estimate the radio-stability of [^18F]F-CNBI or [^18F]F-CNPIFE at different time points post-incubation. For control, 100 μL of [^18F]F-CNBI (˜0.74 MBq) was taken in a microcentrifuge without dilution or 100 μL of [^18F]F-CNPIFE (˜3.70 MBq) was added to 100 μL deionized water in a microcentrifuge tube. Both the controls, were incubated at 25° C. for 120 min. At 0 min, 30 min, 60 min and 120 min during incubation, small aliquot (˜0.5 μL) was taken from the controls in duplicate and rad-TLC was performed as mentioned above. […]

[3] = serum stability by rad-TLC, mouse serum; format: in vitro ADME; settings: 37° C., up to 120 min
Description: as §1, §2

[4] = in vivo PET imaging in mice (Example 1), brain uptake; settings: mouse brain
Description: Initial in vivo study in mouse model: Initial in vivo PET imaging studies were conducted in mice at different time points. The uptake of the [^18F]CNPIFE (28) probe is expressed as a standard uptake value (SUV).
In vivo study in mouse model: In vivo PET imaging studies were conducted in mice at different time points to compare the SUV for [^18F]—CNBI (4) and [^18F]CNPIFE (28).

[5] = dynamic micro-PET imaging and biodistribution in normal FVB/NJ mice with and without self-blocking; format: in vivo, mouse; settings: for effect of co-administration of the reference compound on brain uptake: self-blocking study
Description: To pursue this, [^18F]F-CNBI and [^18F]F-CNPIFE were evaluated in the normal FVB/NJ mouse model.
The uptake of [^18F]F-CNPIFE (SUV=0.48±0.09; n=5) in brain was 2.5-fold higher than [^18F]F-CNBI (SUV=0.19±0.06; n=6) as early as 5 min post-injection. This difference increased with time: 4.8-fold higher SUV for [^18F]F-CNPIFE (SUV=0.48±0.11; n=5) as compared to [^18F]F-CNBI (SUV=0.10±0.01; n=6) at 15 min which further increased to 9.5-fold difference at 30 min (see FIG. 21). […] The differences in uptakes of [^18F]F-CNPIFE and [^18F]F-CNBI in the brain and liver likely relate to the difference in their chemical structures (compounds 4 and 28). Greater accumulation of [^18F]F-CNPIFE in the brain relative to [^18F]F-CNBI was consistent with its higher BBB permeability value indicated by the PAMPA assay (see Table 1).
To further understand the characteristics of the uptake of these PET probes in the brain, self-blocking studies with corresponding non-radiolabeled reference compounds were performed. In general, co-administration of [^18F]F-CNBI and [^18F]F-CNPIFE with their corresponding reference compounds, [^19F]F-CNBI and [^19F]F-CNPIFE, respectively, were expected to decrease the uptake of radiotracers in the brain. […] However, a non-significant trend in increase in brain uptake of [^18F]F-CNPIFE can be noticed on coadministration of nonradioactive [^19F]F-CNPIFE with the PET probe [^18F]F-CNPIFE. […] We hypothesize that enhanced brain uptake with additional administration of nonradioactive form of the tracer could be attributed to the binding of [^19F]F-CNBI with normally expressed GSK-3α/β in extremities and allowing relatively greater levels of [^18F]F-CNBI to be taken up by the brain as a peripheral effect.
In vivo study: Biodistribution of [^18F]F-CNBI and [^18F]F-CNPIFE were assessed in brain and in liver of normal FVB/NJ mice (The Jackson Laboratory, Bar Harbor, ME) with and without co administration of unlabeled reference compounds [^19F]F-CNBI (200 μg and 300 μg) and [^19F]F-CNPIFE (25 μg) in separate groups of animals. Stock solutions of [^19F]F-CNPIFE (26 mM) and [^19F]F-CNBI (25 mM) were prepared in the dimethyl sulfoxide (DMSO). For blocking studies with [^19F]F-CNBI, 200 μg (530.5 nmol) or 300 μg (795.8 nmol) of [^19F]F-CNBI (nonradioactive reference compound) was added to the PET probe [^18F]F-CNBI self-containing ˜9.3 nmol [^19F]F-CNBI in the final formulation volume of ˜100 μL. For blocking with [^19F]F-CNPIFE, 25 μg (59 nmol) of [^19F]F-CNPIFE was added to the PET probe [^18F]F-CNPIFE self-containing to 0.8-1.0 nmol of [^19F]F-CNPIFE in the final formulation volume of ˜100 μL. The final formulation containing both PET probes and their nonradioactive reference compounds were prepared in 0.9% saline isotonic solution before tail vein injection. Immediately after the tail vein injection of the radiotracers, animals were subjected to a dynamic micro-PET imaging for 30 min using a small animal micro-PET/X-ray system (Sofie BioSystems Genesys4, Culver City, CA, USA). The PET images were visualized and analyzed using image analysis software, Amide's a Medical Image Data Examiner—AMIDE [Ref. 29]. PET images at 5 min, 10 min, 15 min, 20 min, 25 min, and 30 min post-injection were normalized to the standardized uptake value (SUV), where SUV=(Concentration of dose in tissue (μCi/g)/(Injected dose (μCi)/Weight of the animal (g)) and presented as coronal, transverse and sagittal sectional image.

GSK-3 = experiment: binding affinity comparison with previous compounds, isoform not stated; format: biochemical; settings: relative to [18F]CNBI (4)
Description: The inhibitory effect of [^18F]—CNBI (4) and [^18F]—CNPI (25) (as synthesized as described above) and [^18F]CNPIFE (28) (as synthesized as shown in FIG. 10) on kinase activity was measured. […] Determination of IC50 was determined as follows. The phosphorylation of glycogen synthase substrate by human glycogen synthase kinase α (GSK-3α) or human glycogen synthase kinase β (GSK-3β) was performed using human GSK-3α/β Kinase Enzyme Assay System (Promega Corporation, Madison, WI) in the presence of GSK-3α/β probes (0-400 nM). The phosphorylation of glycogen synthase substrate was quantified using ADP-Glo™ Kinase assay system (Promega Corporation, Madison, WI). IC50 of GSK-3α/β probes was determined from resulting dose response curve and IC50 curve fitting tool of GraphPad Prism 10 (GraphPad Software, San Diego, CA). (See Stein et al., “Comparison of [^18F]F-CNBI and [^18F]F-CNPIFE as Positron Emission Tomography Probes for Noninvasive Imaging of Glycogen Synthase Kinase-3 in Normal Mice”, Eur. J. Org. Chem. 2022).
It can be seen that [^18F]CNPIFE (28) has better purity (about 99% purity), better binding affinity (6×), and better blood brain barrier permeability (6×) compared to previous compounds such as [^18F]CNBI (4). The standard uptake is very close to 1, and to the gold standard value for [N-Methyl-^11C]2-(4′-methylaminophenyl)-6-hydroxybenzothiazole also known as [^11C] […]

[6] = tested on: various tau isoforms and other proteins involved in neurodegeneration; experiment: affinity towards tau isoforms and other proteins involved in neurodegeneration; format: binding
Description: The affinity of [^18F]CNPIFE (28) towards various tau isoforms and other proteins involved in neurodegeneration was measured.

[7] = FVB/NJ mice, 5 min post-injection
[8] = FVB/NJ mice, 15 min post-injection
[9] = FVB/NJ mice, 30 min post-injection, without coadministration of reference compound

Question: Which “Permeability coefficient, P (10^−6 cm/s) Average ± SD” value [1] does the source give for CC(C)NCC(O)COc1cccc2ccccc12 (stereo not drawn) [Propranolol HCl] here?
Answer: 32±1 10^−6 cm/s

Question: Which results are given for O=C(Nc1cnccc1-c1ccc([18F])nc1)c1ccnc(NC(=O)C2CC2)c1 [[^18F]F-CNBI, 2-(cyclopropanecarboxamido)-N-(6-(fluoro-^18F)-[3,4′-bipyridin]-3′-yl)isonicotinamide]?
Answer: stability in human serum [2]: > 92%; stability in mouse serum [3]: > 92%; uptake in the brain (SUV) [4]: 0.4 SUV; fold difference of brain uptake with blocking (coadministration of [19F]F-CNBI) ([5]; 30 min post-injection, 200-300 μg [19F]F-CNBI): 2.5-3.0 fold; brain uptake (SUV) ([5]; 30 min post-injection, co-injected with 300 μg [19F]F-CNBI): 0.24±0.01 SUV; brain uptake (SUV) ([5]; 30 min post-injection, coadministration of 200 μg [19F]F-CNBI): 0.20±0.01 SUV; brain uptake (SUV) [5, 7]: 0.19±0.06 SUV; brain uptake (SUV) [5, 8]: 0.10±0.01 SUV; brain uptake (SUV) [5, 9]: 0.08±0.005 SUV; liver uptake (SUV) ([5]; co-injected with 200 μg [19F]F-CNBI): 4.93±0.52 SUV; liver uptake (SUV) ([5]; co-injected with 300 μg [19F]F-CNBI): 3.89±0.60 SUV; liver uptake (SUV) ([5]; same animals as brain 30 min, without coadministration of [19F]F-CNBI): 10.15±2.87 SUV; effect of co-administration of the reference compound on brain uptake [5]: significant increase

Question: For O=C(Nc1cnccc1-c1ccc(OCC[18F])cc1)c1ccnc(NC(=O)C2CC2)c1 [[^18F]F-CNPIFE], which “better binding affinity compared to previous compounds such as [18F]CNBI (4)” value (GSK-3) is on record?
Answer: 6 ×

Question: What about the “stability in human serum” value [2] of the same compound?
Answer: > 83%

Question: And the “stability in mouse serum” value [3]?
Answer: > 83%

Question: And the “uptake in the brain (SUV)” value [4]?
Answer: 0.9 SUV

Question: What about the “binding with various tau isoforms and other proteins involved in neurodegeneration” value [6] of the same compound?
Answer: no to minimum binding

Question: And the “brain uptake, fold higher than [18F]F-CNBI” value ([5]; 5 min post-injection)?
Answer: 2.5 fold

Question: And the “brain uptake, fold higher than [18F]F-CNBI” value ([5]; 15 min post-injection)?
Answer: 4.8 fold

Question: What about the “brain uptake, fold higher than [18F]F-CNBI” value ([5]; 30 min post-injection) of the same compound?
Answer: 9.5 fold

Question: What about the “brain uptake (SUV)” value ([5]; 30 min post-injection, coadministration of 25 μg [19F]F-CNPIFE) of the same compound?
Answer: 0.88±0.14 SUV

Question: What about the “brain uptake (SUV)” value [5, 7] of the same compound?
Answer: 0.48±0.09 SUV

Question: What about the “brain uptake (SUV)” value [5, 8] of the same compound?
Answer: 0.48±0.11 SUV

Question: What about the “brain uptake (SUV)” value [5, 9] of the same compound?
Answer: 0.76±0.16 SUV

Question: What about the “effect of co-administration of the reference compound on brain uptake” value [5] of the same compound?
Answer: no significant difference
